Assay results: patent US8105796B2, “Regulation of expression of PI3Kβ protein in tumors” (Universita' Degli Studi di Torino, priority 2007, dated 2012)

Experiments:
PI3Kβ^+/+ MEFs = test: Proliferation curve of mouse embryonic fibroblasts (MEFs) with p110β inhibitors; format: cell-based
Experimental: FIG. 3. PI3Kβ^KR expression dosage inversely correlates with phenotype severity. a) MEFs were derived from normal (PI3Kβ^KR/KR(High)) or abnormal PI3Kβ^KR/KR (Low)) embryos and the expression level of the PI3Kβ^KR/KR protein was analyzed by SDS-PAGE and immunoblotting, using the indicated antibodies. b) analysis of p110β catalytic activity. Lipid kinase assay was performed on p110β immunoprecipitated from wild type (PI3Kβ^+/+) and PI3Kβ^KR/KR(High) MEFs. c) proliferation curve of mutant MEFs with high and low PI3Kβ^KR expression levels compared to that of wild-type MEFs with or without 100 nM TGX-221 treatment (TGX).
Since p110β is activated downstream growth factor receptors, and cell growth is the driving force during embryonic development, the present inventors analyzed cell proliferation of PI3Kβ^KR/KR(High), PI3Kβ^KR/KR(Low) and PI3Kβ^+/+ MEFs.

[1] = system: Akt/PKB phosphorylation in liver; test: Insulin-stimulated Akt phosphorylation in liver of treated mice; format: in vivo, mouse
Experimental: FIG. 5. After insulin stimulation, Akt phosphorylation declines in PI3Kβ^KR/KR liver faster than controls. Phosphorylation of Erk1/2 and Akt (on Thr308 and Ser473) in livers of mice of the given genotype with and without TGX-155 treatment. Lower panel: quantification of Akt phosphorylation on Ser473 (n=5)
To test this hypothesis, Akt/PKB phosphorylation was tested in wild-type and mutant mice in tissues known to be particularly sensitive to insulin signaling like the liver.

[2] = system: wild-type (PI3Kβ^+/+/neuT) tumor derived mammary gland cancer cells; test: Proliferation curves of cultured tumor derived mammary gland cancer cells; format: cell-based, mouse; details: wild-type tumor cells (FIG. 10)
Experimental: FIG. 10. Requirement of PI3Kβ for cell proliferation of tumor derived mammary gland cancer cell lines. Proliferation curves of cultured tumor cells of the two genotypes in the absence or presence of TGX-155 (10 μM) and TGX-221 (100 nM)p110β selective inhibitors. Statistical significance: wild-type cells vs all other conditions; other pairs of datasets: n.s.
Moreover, to further test if the protection against breast cancer development was intrinsic to the lack of the kinase activity, tumor cells from PI3Kβ^KR/KR and PI3Kβ^+/+ mice were cultured in the presence of p110β selective inhibitors, TGX-155 and TGX-221.

Row | Structure (SMILES) | growth rate (cell proliferation) of MEFs (PI3Kβ^+/+ MEFs; PI3Kβ^+/+ MEFs treated with TGX-155, versus controls) | Akt phosphorylation after 5 minutes of insulin stimulation ([1]; liver of wild type mice treated with TGX-155, 5 minutes of insulin stimulation (FIG. 5)) | decline of Akt activation after insulin stimulation ([1]; liver, later time of insulin stimulation, versus untreated wild-type controls (FIG. 5)) | proliferation of wild-type tumor cells ([2]; TGX-155 10 μM) | growth rate (cell proliferation) of MEFs (PI3Kβ^+/+ MEFs; PI3Kβ^+/+ MEFs, 100 nM TGX-221, versus controls (FIG. 3c)) | proliferation of wild-type tumor cells ([2]; TGX-221 100 nM)
1 | Cc1cc(F)ccc1Oc1cccc2c(=O)cc(N3CCOCC3)[nH]c12 [TGX-155] | growth rate comparable to that of the controls | no differences in Akt phosphorylation | declined significantly faster | significant reduction in proliferation | – | –
2 | Cc1cc(C(C)Nc2ccccc2)c2nc(N3CCOCC3)cc(=O)n2c1 (stereo not drawn) [TGX-221] | – | – | – | – | growth rate comparable to that of the controls | significant reduction in proliferation
